Key:
[1] = target: Ribosomal protein S6 kinase beta-1 (Homo sapiens, UniProt P23443); assay: Percentage S6K1 activity remaining in the presence of 0.01uM inhibitor
[2] = target: T1, Serine/threonine-protein kinase 3 (Homo sapiens) (UniProt Q13188); assay: Percentage MST2 activity remaining in the presence of 0.01uM inhibitor
T1 sequence (whole entry): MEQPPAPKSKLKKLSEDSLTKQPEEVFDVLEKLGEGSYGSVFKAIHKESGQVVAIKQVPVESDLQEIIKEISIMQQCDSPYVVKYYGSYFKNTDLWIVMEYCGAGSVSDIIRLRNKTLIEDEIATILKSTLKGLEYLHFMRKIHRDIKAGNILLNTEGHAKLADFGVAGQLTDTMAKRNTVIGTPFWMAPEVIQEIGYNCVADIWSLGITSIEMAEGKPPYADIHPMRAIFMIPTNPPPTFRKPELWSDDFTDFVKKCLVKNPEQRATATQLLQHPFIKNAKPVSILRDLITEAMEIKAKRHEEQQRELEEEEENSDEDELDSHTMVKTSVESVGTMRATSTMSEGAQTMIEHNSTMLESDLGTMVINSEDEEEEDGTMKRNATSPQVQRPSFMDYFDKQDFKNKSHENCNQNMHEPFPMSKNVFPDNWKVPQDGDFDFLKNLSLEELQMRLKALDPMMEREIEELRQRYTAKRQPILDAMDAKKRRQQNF

[3] = target: T2, Inhibitor of nuclear factor kappa-B kinase subunit beta (Homo sapiens) (UniProt O14920); assay: Percentage IKK-beta activity remaining in the presence of 0.01uM inhibitor
T2 sequence (whole entry): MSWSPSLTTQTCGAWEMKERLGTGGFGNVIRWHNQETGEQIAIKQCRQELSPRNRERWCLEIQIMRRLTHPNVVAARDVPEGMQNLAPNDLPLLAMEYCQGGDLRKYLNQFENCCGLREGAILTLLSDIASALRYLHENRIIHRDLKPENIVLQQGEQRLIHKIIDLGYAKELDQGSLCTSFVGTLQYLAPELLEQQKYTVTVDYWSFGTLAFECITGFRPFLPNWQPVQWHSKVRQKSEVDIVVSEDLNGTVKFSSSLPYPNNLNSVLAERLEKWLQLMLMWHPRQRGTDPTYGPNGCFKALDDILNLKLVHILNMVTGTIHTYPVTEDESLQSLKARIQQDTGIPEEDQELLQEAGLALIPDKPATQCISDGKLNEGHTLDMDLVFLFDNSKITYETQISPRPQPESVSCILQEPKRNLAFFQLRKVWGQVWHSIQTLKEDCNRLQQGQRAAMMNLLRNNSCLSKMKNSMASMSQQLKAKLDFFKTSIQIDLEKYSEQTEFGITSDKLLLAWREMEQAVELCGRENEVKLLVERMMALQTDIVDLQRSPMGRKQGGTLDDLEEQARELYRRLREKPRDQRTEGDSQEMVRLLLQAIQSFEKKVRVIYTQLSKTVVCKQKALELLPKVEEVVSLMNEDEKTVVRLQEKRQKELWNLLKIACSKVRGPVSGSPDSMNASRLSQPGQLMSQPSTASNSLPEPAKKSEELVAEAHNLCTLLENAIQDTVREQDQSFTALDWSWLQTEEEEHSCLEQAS

[4] = target: Dual specificity tyrosine-phosphorylation-regulated kinase 1A (Homo sapiens) (UniProt Q13627); assay: Percentage DYRK1A activity remaining in the presence of 0.01uM inhibitor
[5] = target: T3, Serine/threonine-protein kinase BRSK2 (Homo sapiens) (UniProt Q8IWQ3); assay: Percentage BRSK2 activity remaining in the presence of 0.01uM inhibitor
T3 sequence (whole entry): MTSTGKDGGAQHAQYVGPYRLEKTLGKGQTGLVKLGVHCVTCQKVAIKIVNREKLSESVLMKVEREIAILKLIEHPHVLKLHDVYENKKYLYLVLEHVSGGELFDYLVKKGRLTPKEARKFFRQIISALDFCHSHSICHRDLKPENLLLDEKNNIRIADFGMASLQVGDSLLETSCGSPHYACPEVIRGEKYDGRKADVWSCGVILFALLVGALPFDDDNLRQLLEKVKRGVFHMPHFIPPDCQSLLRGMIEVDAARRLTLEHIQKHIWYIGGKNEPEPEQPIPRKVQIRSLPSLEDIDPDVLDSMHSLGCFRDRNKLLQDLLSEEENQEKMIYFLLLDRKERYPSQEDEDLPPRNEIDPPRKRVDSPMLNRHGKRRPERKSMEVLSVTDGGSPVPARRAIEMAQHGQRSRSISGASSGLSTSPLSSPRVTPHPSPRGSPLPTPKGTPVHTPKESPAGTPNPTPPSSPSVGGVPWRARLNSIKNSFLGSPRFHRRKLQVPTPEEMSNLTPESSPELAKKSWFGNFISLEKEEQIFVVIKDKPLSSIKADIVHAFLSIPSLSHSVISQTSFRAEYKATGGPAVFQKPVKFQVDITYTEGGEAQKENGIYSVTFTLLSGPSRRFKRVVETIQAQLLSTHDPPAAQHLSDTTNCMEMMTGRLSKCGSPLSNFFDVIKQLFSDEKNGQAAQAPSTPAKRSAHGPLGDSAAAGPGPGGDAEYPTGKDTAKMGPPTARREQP

[6] = target: MAP kinase-interacting serine/threonine-protein kinase 1 (Homo sapiens) (UniProt Q9BUB5); assay: Percentage MNK1 activity remaining in the presence of 0.01uM inhibitor
[7] = target: Serine/threonine-protein kinase PAK 6 (Homo sapiens) (UniProt Q9NQU5); assay: Percentage PAK6 activity remaining in the presence of 0.01uM inhibitor
[8] = target: Casein kinase II (Homo sapiens) (UniProt P67870+P68400+P19784); assay: Percentage CK2 activity remaining in the presence of 0.01uM inhibitor; assay type: protein-complex assay
[9] = target: Homeodomain-interacting protein kinase 3 (Homo sapiens) (UniProt Q9H422); assay: Percentage HIPK3 activity remaining in the presence of 0.1uM inhibitor
[10] = target: Mitogen-activated protein kinase 11 (Homo sapiens) (UniProt Q15759); assay: Percentage p38beta activity remaining in the presence of 0.01uM inhibitor
[11] = target: Serine/threonine-protein kinase PAK 5 (Homo sapiens) (UniProt Q9P286); assay: Percentage PAK5 activity remaining in the presence of 0.01uM inhibitor
[12] = target: Ribosomal protein S6 kinase alpha-5 (Homo sapiens) (UniProt O75582); assay: Percentage MSK1 activity remaining in the presence of 0.01uM inhibitor
[13] = target: Mitogen-activated protein kinase 8 (Homo sapiens, UniProt P45983); assay: Percentage JNK1 activity remaining in the presence of 0.01uM inhibitor
[14] = target: MAP kinase-interacting serine/threonine-protein kinase 2 (Homo sapiens) (UniProt Q9HBH9); assay: Percentage MNK2 activity remaining in the presence of 0.01uM inhibitor
[15] = target: Serine/threonine-protein kinase Nek6 (Homo sapiens) (UniProt Q9HC98); assay: Percentage NEK6 activity remaining in the presence of 0.01uM inhibitor
[16] = target: Dual specificity mitogen-activated protein kinase kinase 1 (Homo sapiens) (UniProt Q02750); assay: Percentage MKK1 activity remaining in the presence of 0.01uM inhibitor
Chain of Dual specificity mitogen-activated protein kinase kinase 1 (Homo sapiens) (Q02750 whole entry): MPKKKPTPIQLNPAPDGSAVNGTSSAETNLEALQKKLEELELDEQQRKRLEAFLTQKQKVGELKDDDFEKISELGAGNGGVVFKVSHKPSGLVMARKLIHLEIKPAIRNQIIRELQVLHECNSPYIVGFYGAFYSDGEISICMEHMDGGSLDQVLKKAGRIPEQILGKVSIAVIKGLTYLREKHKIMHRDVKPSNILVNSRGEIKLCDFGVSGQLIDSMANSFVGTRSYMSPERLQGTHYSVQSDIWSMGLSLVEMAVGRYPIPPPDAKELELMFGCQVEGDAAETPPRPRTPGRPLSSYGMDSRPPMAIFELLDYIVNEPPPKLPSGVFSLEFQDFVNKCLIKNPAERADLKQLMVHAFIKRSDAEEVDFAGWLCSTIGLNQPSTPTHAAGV

Chain of Mitogen-activated protein kinase 11 (Homo sapiens) (Q15759 whole entry): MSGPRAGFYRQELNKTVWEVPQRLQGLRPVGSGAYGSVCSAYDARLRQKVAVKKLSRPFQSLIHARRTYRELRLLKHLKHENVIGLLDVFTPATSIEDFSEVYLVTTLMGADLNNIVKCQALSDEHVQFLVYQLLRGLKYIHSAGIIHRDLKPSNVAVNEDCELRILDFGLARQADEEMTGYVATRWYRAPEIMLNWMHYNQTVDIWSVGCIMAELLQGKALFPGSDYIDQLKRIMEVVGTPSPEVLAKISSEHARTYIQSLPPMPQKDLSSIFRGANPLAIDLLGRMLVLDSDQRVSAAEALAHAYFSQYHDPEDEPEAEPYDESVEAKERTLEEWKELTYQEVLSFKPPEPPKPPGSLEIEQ
Chain of Mitogen-activated protein kinase 8 (P45983 whole entry): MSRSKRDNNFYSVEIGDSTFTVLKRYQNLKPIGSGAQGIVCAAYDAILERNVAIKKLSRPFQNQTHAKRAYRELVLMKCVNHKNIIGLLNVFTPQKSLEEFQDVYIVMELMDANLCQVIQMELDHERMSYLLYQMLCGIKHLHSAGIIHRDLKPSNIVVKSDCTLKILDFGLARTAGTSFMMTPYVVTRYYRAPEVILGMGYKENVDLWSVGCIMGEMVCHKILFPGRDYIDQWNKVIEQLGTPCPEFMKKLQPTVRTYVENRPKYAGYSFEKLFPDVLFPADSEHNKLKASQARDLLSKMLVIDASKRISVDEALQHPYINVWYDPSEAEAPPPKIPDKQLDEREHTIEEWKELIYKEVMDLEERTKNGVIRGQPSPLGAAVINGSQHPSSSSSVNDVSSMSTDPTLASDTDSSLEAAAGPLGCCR
Chain of Serine/threonine-protein kinase PAK 5 (Homo sapiens) (Q9P286 whole entry, looked up): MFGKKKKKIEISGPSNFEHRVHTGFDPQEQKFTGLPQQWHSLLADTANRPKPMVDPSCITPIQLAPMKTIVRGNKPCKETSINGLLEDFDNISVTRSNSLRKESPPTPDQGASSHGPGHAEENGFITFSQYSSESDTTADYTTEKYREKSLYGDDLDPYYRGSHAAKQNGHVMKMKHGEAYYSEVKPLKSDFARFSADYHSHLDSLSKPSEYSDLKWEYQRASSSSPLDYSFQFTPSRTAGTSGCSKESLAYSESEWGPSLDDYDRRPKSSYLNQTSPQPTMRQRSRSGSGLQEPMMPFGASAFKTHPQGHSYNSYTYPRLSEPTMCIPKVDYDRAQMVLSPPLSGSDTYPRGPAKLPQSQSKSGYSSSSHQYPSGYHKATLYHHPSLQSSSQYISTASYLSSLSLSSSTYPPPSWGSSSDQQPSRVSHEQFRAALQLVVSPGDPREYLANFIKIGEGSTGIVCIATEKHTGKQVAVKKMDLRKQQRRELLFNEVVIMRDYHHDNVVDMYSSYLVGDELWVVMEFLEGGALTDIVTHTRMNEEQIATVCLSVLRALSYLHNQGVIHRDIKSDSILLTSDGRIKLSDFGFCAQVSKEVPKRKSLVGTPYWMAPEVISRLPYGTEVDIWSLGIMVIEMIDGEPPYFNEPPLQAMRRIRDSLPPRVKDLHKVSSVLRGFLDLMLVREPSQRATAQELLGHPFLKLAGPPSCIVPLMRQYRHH
Chain of Ribosomal protein S6 kinase beta-1 (P23443 whole entry, looked up): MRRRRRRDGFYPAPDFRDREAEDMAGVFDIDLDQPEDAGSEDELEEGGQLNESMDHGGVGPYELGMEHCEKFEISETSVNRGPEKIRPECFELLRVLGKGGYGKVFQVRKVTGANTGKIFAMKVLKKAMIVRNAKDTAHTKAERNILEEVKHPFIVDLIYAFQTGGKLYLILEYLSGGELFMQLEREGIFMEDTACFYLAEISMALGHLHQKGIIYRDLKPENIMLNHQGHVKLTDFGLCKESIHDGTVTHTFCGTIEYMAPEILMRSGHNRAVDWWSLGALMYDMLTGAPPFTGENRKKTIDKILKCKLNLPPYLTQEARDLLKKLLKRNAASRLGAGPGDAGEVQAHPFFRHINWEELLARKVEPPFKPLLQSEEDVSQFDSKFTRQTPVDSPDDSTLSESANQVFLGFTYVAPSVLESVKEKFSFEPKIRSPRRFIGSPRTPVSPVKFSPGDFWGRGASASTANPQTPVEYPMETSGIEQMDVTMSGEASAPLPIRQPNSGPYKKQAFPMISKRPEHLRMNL
Chain of Serine/threonine-protein kinase PAK 6 (Homo sapiens) (Q9NQU5 whole entry, looked up): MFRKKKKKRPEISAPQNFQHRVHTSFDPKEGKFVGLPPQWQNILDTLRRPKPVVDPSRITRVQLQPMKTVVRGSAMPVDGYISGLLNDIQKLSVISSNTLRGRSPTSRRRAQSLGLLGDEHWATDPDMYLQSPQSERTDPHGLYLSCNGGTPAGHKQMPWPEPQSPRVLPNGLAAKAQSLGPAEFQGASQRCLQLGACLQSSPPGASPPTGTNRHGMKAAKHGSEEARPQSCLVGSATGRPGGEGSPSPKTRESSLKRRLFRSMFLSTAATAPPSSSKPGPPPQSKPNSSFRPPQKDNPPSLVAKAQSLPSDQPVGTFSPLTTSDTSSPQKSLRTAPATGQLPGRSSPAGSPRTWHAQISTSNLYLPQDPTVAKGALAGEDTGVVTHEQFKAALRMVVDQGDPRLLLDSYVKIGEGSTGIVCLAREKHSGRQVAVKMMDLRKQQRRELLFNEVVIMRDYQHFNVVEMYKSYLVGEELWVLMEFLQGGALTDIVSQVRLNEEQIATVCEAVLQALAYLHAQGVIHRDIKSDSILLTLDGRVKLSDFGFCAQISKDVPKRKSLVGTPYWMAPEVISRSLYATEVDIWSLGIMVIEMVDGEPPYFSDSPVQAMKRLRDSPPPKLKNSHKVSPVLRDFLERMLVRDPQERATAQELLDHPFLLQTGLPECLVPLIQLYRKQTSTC
Chain of MAP kinase-interacting serine/threonine-protein kinase 1 (Homo sapiens) (Q9BUB5 whole entry, looked up): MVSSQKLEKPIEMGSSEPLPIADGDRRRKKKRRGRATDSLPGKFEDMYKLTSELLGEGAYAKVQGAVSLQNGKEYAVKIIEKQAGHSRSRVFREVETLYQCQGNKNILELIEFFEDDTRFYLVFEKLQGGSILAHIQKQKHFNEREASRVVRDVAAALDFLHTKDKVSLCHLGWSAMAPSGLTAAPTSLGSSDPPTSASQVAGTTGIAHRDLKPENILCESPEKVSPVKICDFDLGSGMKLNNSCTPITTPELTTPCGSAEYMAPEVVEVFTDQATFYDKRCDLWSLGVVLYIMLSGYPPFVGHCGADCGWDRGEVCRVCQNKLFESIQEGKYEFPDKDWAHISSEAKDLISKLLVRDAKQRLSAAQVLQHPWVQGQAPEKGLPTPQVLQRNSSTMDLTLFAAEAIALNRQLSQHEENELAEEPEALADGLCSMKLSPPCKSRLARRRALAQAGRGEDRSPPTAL
Chain of Serine/threonine-protein kinase Nek6 (Homo sapiens) (Q9HC98 whole entry): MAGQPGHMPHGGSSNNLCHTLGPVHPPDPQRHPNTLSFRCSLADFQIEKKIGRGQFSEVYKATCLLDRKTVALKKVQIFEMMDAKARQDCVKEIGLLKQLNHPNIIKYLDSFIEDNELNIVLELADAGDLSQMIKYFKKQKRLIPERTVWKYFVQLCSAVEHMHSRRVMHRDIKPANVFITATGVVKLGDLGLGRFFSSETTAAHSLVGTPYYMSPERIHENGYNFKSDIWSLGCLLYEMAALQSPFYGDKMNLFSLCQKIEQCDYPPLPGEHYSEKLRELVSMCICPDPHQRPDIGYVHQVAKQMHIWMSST
Chain of MAP kinase-interacting serine/threonine-protein kinase 2 (Homo sapiens) (Q9HBH9 whole entry, looked up): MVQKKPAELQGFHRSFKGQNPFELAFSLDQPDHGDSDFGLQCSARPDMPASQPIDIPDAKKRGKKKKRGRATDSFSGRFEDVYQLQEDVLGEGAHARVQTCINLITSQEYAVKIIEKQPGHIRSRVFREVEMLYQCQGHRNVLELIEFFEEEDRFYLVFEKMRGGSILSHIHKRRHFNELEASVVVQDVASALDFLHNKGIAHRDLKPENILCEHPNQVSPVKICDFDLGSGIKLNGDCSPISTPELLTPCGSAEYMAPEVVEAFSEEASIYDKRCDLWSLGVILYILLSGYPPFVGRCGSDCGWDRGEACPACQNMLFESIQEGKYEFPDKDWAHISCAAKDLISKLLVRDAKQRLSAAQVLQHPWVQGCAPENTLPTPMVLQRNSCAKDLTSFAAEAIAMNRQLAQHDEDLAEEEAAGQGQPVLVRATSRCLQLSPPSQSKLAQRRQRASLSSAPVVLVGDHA

Compound | Activity [1] | Activity [2] | Activity [3] | Activity [4] | Activity [5] | Activity [6] | Activity [7] | Activity [8] | Activity [9] | Activity [10] | Activity [11] | Activity [12] | Activity [13] | Activity [15] | Activity [16] | Activity [14] | other results
O=C(NCCCNc1nc(Nc2cccc(NC(=O)N3CCCC3)c2)ncc1I)c1cccs1 | 100% | 96% | 108% | 94% | 92% | 80% | 92% | 93% | 94% | 94% | 97% | 88% | 104% | 96% | 50% |  | Activity ([14]; filed as antagonist): 47%
Cn1cc(C2=C(c3cn(CCCSC(=N)N)c4ccccc34)C(=O)NC2=O)c2ccccc21 |  |  |  |  |  |  |  |  | 78% |  |  |  |  |  |  |  | 
CC(C)CCN1c2nc(Nc3cc(F)c(O)c(F)c3)ncc2N(C)C(=O)C1C (stereo not given) |  |  |  |  |  |  |  |  | 104% |  |  |  |  |  |  |  | 
CN[C@@H]1C[C@H]2O[C@@](C)([C@@H]1OC)n1c3ccccc3c3c4c(c5c6ccccc6n2c5c31)C(=O)N[C@H]4O (stereo in doubt) | 96% |  | 86% | 90% |  | 85% |  | 92% |  | 105% |  | 68% | 79% | 104% | 75% | 103% | Activity ([2]; filed as antagonist): 2%; Activity ([5]; filed as antagonist): 27%; Activity ([7]; filed as antagonist): 35%; Activity ([11]; filed as antagonist): 36%
Cc1n[nH]c2ccc(-c3cncc(OC[C@@H](N)Cc4c[nH]c5ccccc45)c3)cc12 | 88% | 76% | 93% |  | 88% | 120% | 87% | 96% | 71% | 114% | 104% |  | 89% | 95% | 84% | 97% | Activity ([4]; filed as antagonist): 10%; Activity ([12]; filed as antagonist): 19%
Cn1c2ccccc2c2c3c(c4c5ccccc5n(CCC#N)c4c21)CNC3=O |  |  |  |  |  |  |  |  | 74% |  |  |  |  |  |  |  | 

From ChEMBL document CHEMBL1150976, “The selectivity of protein kinase inhibitors: a further update” (Biochem J, 2007)
